The subject of the experiment is MV-4-11 cells. Put plainly: Gene expression microarray analysis (Affymetrix PrimeView) and GSEA. Type of experiment: cell-based, human. On the set-up: RFU PODN (11730768_x_at) / Fold change /veh PODN (11730768_x_at) / RFU LINC00158 (11744669_a_at) / Fold change /veh LINC00158 (11744669_a_at) / RFU DUSP10 (11751237_a_at) / Fold change /veh DUSP10 (11751237_a_at) / RFU ID3 (11757404_x_at) / Fold change /veh ID3 (11757404_x_at) / RFU PLEKHG5 (11737974_s_at) / Fold change /veh PLEKHG5 (11737974_s_at) / RFU LRRC4B (11730491_at) / Fold change /veh LRRC4B (11730491_at) / RFU GIMAP4 (11747438_a_at) / Fold change /veh GIMAP4 (11747438_a_at) / RFU KRT8 (11758183_x_at) / Fold change /veh KRT8 (11758183_x_at) / RFU CNN1 (11734310_a_at) / Fold change /veh CNN1 (11734310_a_at) / RFU VPS37D (11726825_at) / Fold change /veh VPS37D (11726825_at) / RFU C10orf10 (11716522_x_at) / Fold change /veh C10orf10 (11716522_x_at) / RFU KIR2DL2 /// KIR2DL4 /// KIR2DL5A /// KIR2DL5B /// KIR2DS1 /// KIR2DS2 /// KIR2DS3 /// KIR2DS4 /// KIR3DL3 /// KIR3DL3 /// KIR3DS1 (11738374_at) / Fold change /veh KIR2DL2 /// KIR2DL4 /// KIR2DL5A /// KIR2DL5B /// KIR2DS1 /// KIR2DS2 /// KIR2DS3 /// KIR2DS4 /// KIR3DL3 /// KIR3DL3 /// KIR3DS1 (11738374_at) / RFU C1QL1 (11718748_at) / Fold change /veh C1QL1 (11718748_at) / RFU TMPRSS4 (11747572_a_at) / Fold change /veh TMPRSS4 (11747572_a_at) / RFU HAMP (11756126_x_at) / Fold change /veh HAMP (11756126_x_at) / RFU RNFT2 (11725882_a_at) / Fold change /veh RNFT2 (11725882_a_at) / RFU NR4A2 (11747474_a_at) / Fold change /veh NR4A2 (11747474_a_at) / RFU ABCC12 (11746883_a_at) / Fold change /veh ABCC12 (11746883_a_at) / RFU TMEM136 (11760407_x_at) / Fold change /veh TMEM136 (11760407_x_at) / RFU CLDN22 /// WWC2 (11732394_at) / Fold change /veh CLDN22 /// WWC2 (11732394_at) / RFU HLA-DPB1 (11760878_x_at) / Fold change /veh HLA-DPB1 (11760878_x_at) / RFU SPINT1 (11716480_a_at) / Fold change /veh SPINT1 (11716480_a_at) / RFU GAP43 (11754022_s_at) / Fold change /veh GAP43 (11754022_s_at) / RFU A4GNT (11735810_at) / Fold change /veh A4GNT (11735810_at) / RFU PRB3 (11715151_x_at) / Fold change /veh PRB3 (11715151_x_at) / RFU TUBB4B (11761932_at) / Fold change /veh TUBB4B (11761932_at) / RFU CAPN14 (11732068_a_at) / Fold change /veh CAPN14 (11732068_a_at) / RFU TMCC2 (11721928_a_at) / Fold change /veh TMCC2 (11721928_a_at) / RFU IRGQ (11745062_a_at) / Fold change /veh IRGQ (11745062_a_at) / RFU FAM174B (11720279_a_at) / Fold change /veh FAM174B (11720279_a_at) / RFU TMPRSS4 (11748680_a_at) / Fold change /veh TMPRSS4 (11748680_a_at) / RFU FAM212B (11763350_a_at) / Fold change /veh FAM212B (11763350_a_at) / RFU PLEKHG5 (11743358_a_at) / Fold change /veh PLEKHG5 (11743358_a_at) / RFU ZSCAN30 (11745921_a_at) / Fold change /veh ZSCAN30 (11745921_a_at) / RFU CMKLR1 (11741424_a_at) / Fold change /veh CMKLR1 (11741424_a_at) / RFU LOC101060620 /// MAPK8IP1 (11723275_at) / Fold change /veh LOC101060620 /// MAPK8IP1 (11723275_at) / RFU SPTSSB (11747773_x_at) / Fold change /veh SPTSSB (11747773_x_at) / RFU PRSS12 (11739890_at) / Fold change /veh PRSS12 (11739890_at) / RFU BIN1 (11741810_x_at) / Fold change /veh BIN1 (11741810_x_at) / RFU WNT11 (11732464_a_at) / Fold change /veh WNT11 (11732464_a_at) / RFU C10orf10 (11716521_a_at) / Fold change /veh C10orf10 (11716521_a_at) / RFU C5orf56 (11738089_at) / Fold change /veh C5orf56 (11738089_at) / RFU CYB561 (11721691_x_at) / Fold change /veh CYB561 (11721691_x_at) / RFU ANKRD19P (11752326_a_at) / Fold change /veh ANKRD19P (11752326_a_at) / RFU OR2T12 /// OR2T33 /// OR2T8 (11738714_s_at) / Fold change /veh OR2T12 /// OR2T33 /// OR2T8 (11738714_s_at) / RFU VCAN (11748164_a_at) / Fold change /veh VCAN (11748164_a_at) / RFU JSRP1 (11732532_at) / Fold change /veh JSRP1 (11732532_at) / RFU KRTAP10-11 (11738290_x_at) / Fold change /veh KRTAP10-11 (11738290_x_at) / RFU MYO3A (11730013_a_at) / Fold change /veh MYO3A (11730013_a_at) / RFU EBF3 (11725865_a_at) / Fold change /veh EBF3 (11725865_a_at) / RFU CAMK2N1 (11719241_x_at) / Fold change /veh CAMK2N1 (11719241_x_at) / RFU C5orf56 (11738088_a_at) / Fold change /veh C5orf56 (11738088_a_at) / RFU OLFML3 (11715873_a_at) / Fold change /veh OLFML3 (11715873_a_at) / RFU LOC100653217 /// NTM (11731650_a_at) / Fold change /veh LOC100653217 /// NTM (11731650_a_at) / RFU MAPK11 (11762145_a_at) / Fold change /veh MAPK11 (11762145_a_at) / RFU FIZ1 (11724087_x_at) / Fold change /veh FIZ1 (11724087_x_at) / RFU OASL (11726364_x_at) / Fold change /veh OASL (11726364_x_at) / RFU SOX15 (11748057_x_at) / Fold change /veh SOX15 (11748057_x_at) / RFU CD79A (11719716_a_at) / Fold change /veh CD79A (11719716_a_at) / RFU HIST1H1D (11736915_at) / Fold change /veh HIST1H1D (11736915_at) / RFU CASKIN2 (11723855_a_at) / Fold change /veh CASKIN2 (11723855_a_at) / RFU LOC730098 (11760151_x_at) / Fold change /veh LOC730098 (11760151_x_at) / RFU OR4N2 (11742367_at) / Fold change /veh OR4N2 (11742367_at) / RFU PRRT2 (11749266_a_at) / Fold change /veh PRRT2 (11749266_a_at) / RFU SNX32 (11753110_a_at) / Fold change /veh SNX32 (11753110_a_at) / RFU CDHR5 (11726645_a_at) / Fold change /veh CDHR5 (11726645_a_at) / RFU RCAN1 (11760418_a_at) / Fold change /veh RCAN1 (11760418_a_at) / RFU FAM167A (11723789_a_at) / Fold change /veh FAM167A (11723789_a_at) / RFU FAM26E (11764081_at) / Fold change /veh FAM26E (11764081_at) / RFU ISYNA1 (11749810_s_at) / Fold change /veh ISYNA1 (11749810_s_at) / RFU ACY1 (11761880_at) / Fold change /veh ACY1 (11761880_at) / RFU 11764098_at / Fold change /veh 11764098_at / RFU SAMD14 (11745864_x_at) / Fold change /veh SAMD14 (11745864_x_at) / RFU NPB (11741838_a_at) / Fold change /veh NPB (11741838_a_at) / RFU TMPRSS6 (11731388_a_at) / Fold change /veh TMPRSS6 (11731388_a_at) / RFU KRTAP10-2 (11738614_at) / Fold change /veh KRTAP10-2 (11738614_at) / RFU ARHGAP8 /// PRR5-ARHGAP8 (11727945_x_at) / Fold change /veh ARHGAP8 /// PRR5-ARHGAP8 (11727945_x_at) / RFU KRTAP5-7 /// NADSYN1 (11734609_at) / Fold change /veh KRTAP5-7 /// NADSYN1 (11734609_at) / RFU RASL12 (11751679_a_at) / Fold change /veh RASL12 (11751679_a_at) / RFU CDKN2B (11736163_a_at) / Fold change /veh CDKN2B (11736163_a_at) / RFU PRF1 (11729649_at) / Fold change /veh PRF1 (11729649_at) / RFU, ZNF638 /// ZNF638-IT1 / Fold change vs veh, ZNF638 /// ZNF638-IT1 / RFU, PANK3 / Fold change vs veh, PANK3 / RFU, SH3YL1 / Fold change vs veh, SH3YL1 / RFU, ZEB2 / Fold change vs veh, ZEB2 / RFU, NRIP1 / Fold change vs veh, NRIP1 / RFU, PTTG1IP / Fold change vs veh, PTTG1IP / RFU, CAPN2 / Fold change vs veh, CAPN2 / RFU, MED14 / Fold change vs veh, MED14 / RFU, SNORA58 / Fold change vs veh, SNORA58 / RFU, C1orf63 / Fold change vs veh, C1orf63 / RFU, LRRFIP1 / Fold change vs veh, LRRFIP1 / RFU, NDUFAF7 / Fold change vs veh, NDUFAF7 / RFU, SLC12A2 / Fold change vs veh, SLC12A2 / RFU, IBTK / Fold change vs veh, IBTK / RFU, ESF1 / Fold change vs veh, ESF1 / Fold change vs veh, TMEM50B / RFU, TAOK1 / Fold change vs veh, TAOK1 / RFU, ACBD3 / Fold change vs veh, ACBD3 / RFU, TMA16 / Fold change vs veh, TMA16 / RFU, RWDD3 / Fold change vs veh, RWDD3 / RFU, BCAT1 / Fold change vs veh, BCAT1 / RFU, EDEM3 / Fold change vs veh, EDEM3 / RFU, TMEM33 / Fold change vs veh, TMEM33 / RFU, WDR75 / Fold change vs veh, WDR75 / RFU, AHCTF1 / Fold change vs veh, AHCTF1 / RFU, TFRC / Fold change vs veh, TFRC / RFU, ZDHHC17 / Fold change vs veh, ZDHHC17 / RFU, NOM1 / Fold change vs veh, NOM1 / RFU, ARL8B / Fold change vs veh, ARL8B / RFU, ZBTB11 / Fold change vs veh, ZBTB11 / RFU, TAMM41 / Fold change vs veh, TAMM41 / RFU, KIAA1704 /// LOC100996395 / Fold change vs veh, KIAA1704 /// LOC100996395 / RFU, ING1 / Fold change vs veh, ING1 / RFU, TRMT61B / Fold change vs veh, TRMT61B / RFU, FUBP3 / Fold change vs veh, FUBP3 / RFU, TP53 / Fold change vs veh, TP53 / RFU, TNKS2 / Fold change vs veh, TNKS2 / RFU, ZFP14 / Fold change vs veh, ZFP14 / RFU, ACTR2 / Fold change vs veh, ACTR2 / RFU, PPP3R1 / Fold change vs veh, PPP3R1 / RFU, PIK3R1 / Fold change vs veh, PIK3R1 / RFU, HNRNPA1 / Fold change vs veh, HNRNPA1 / RFU, RNF170 / Fold change vs veh, RNF170 / RFU, ZNF28 / Fold change vs veh, ZNF28 / RFU, RNGTT / Fold change vs veh, RNGTT / RFU, OGT / Fold change vs veh, OGT / RFU, BRD1 / Fold change vs veh, BRD1 / RFU, MARS / Fold change vs veh, MARS / RFU, ZNF655 / Fold change vs veh, ZNF655 / RFU, FAHD1 / Fold change vs veh, FAHD1 / RFU, BDP1 / Fold change vs veh, BDP1 / RFU, LRRCC1 / Fold change vs veh, LRRCC1 / RFU, ARID1A / Fold change vs veh, ARID1A / RFU, ZNF146 / Fold change vs veh, ZNF146 / RFU, ZNF330 / Fold change vs veh, ZNF330 / RFU, GPN3 / Fold change vs veh, GPN3 / RFU, C9orf123 / Fold change vs veh, C9orf123 / RFU, N4BP2L2 / Fold change vs veh, N4BP2L2 / RFU, ARFIP1 / Fold change vs veh, ARFIP1 / RFU, FAM179B / Fold change vs veh, FAM179B / RFU, BCL10 / Fold change vs veh, BCL10 / RFU, UHRF1BP1L / Fold change vs veh, UHRF1BP1L / RFU, BET1 / Fold change vs veh, BET1 / RFU, CNOT2 / Fold change vs veh, CNOT2 / RFU, ZNF268 / Fold change vs veh, ZNF268 / Fold change vs veh, ZNF507 / RFU, DGCR2 / Fold change vs veh, DGCR2 / RFU, WDSUB1 / Fold change vs veh, WDSUB1 / Fold change vs veh, HSP90B1 /// MIR3652 / RFU, ADSS / Fold change vs veh, ADSS / RFU, GK / Fold change vs veh, GK / RFU, ZNF148 / Fold change vs veh, ZNF148 / RFU, TAF9 / Fold change vs veh, TAF9 / RFU, SLC1A5 / Fold change vs veh, SLC1A5 / RFU, SLMO2 / Fold change vs veh, SLMO2 / RFU, ABCC4 / Fold change vs veh, ABCC4 / RFU, LOC101060439 /// RAP1B / Fold change vs veh, LOC101060439 /// RAP1B / RFU, RFX7 / Fold change vs veh, RFX7 / RFU, GTPBP10 / Fold change vs veh, GTPBP10 / RFU, CNEP1R1 / Fold change vs veh, CNEP1R1 / RFU, BIVM-ERCC5 /// ERCC5 / Fold change vs veh, BIVM-ERCC5 /// ERCC5 / RFU, ILF3 / Fold change vs veh, ILF3 / RFU 11762660_at / Fold change /veh 11762660_at / RFU VCAN (11757783_s_at) / Fold change /veh VCAN (11757783_s_at) / RFU DDX43 (11728927_at) / Fold change /veh DDX43 (11728927_at) / RFU KRT8 (11758188_x_at) / Fold change /veh KRT8 (11758188_x_at) / RFU NKD1 (11759106_at) / Fold change /veh NKD1 (11759106_at) / RFU SRD5A1 (11742802_a_at) / Fold change /veh SRD5A1 (11742802_a_at) / RFU TPSAB1 /// TPSB2 (11721975_s_at) / Fold change /veh TPSAB1 /// TPSB2 (11721975_s_at) / RFU GSTM3 (11746129_a_at) / Fold change /veh GSTM3 (11746129_a_at) / RFU IL23R (11737362_x_at) / Fold change /veh IL23R (11737362_x_at) / RFU TMEM51 (11727254_a_at) / Fold change /veh TMEM51 (11727254_a_at) / RFU PIWIL2 (11732686_x_at) / Fold change /veh PIWIL2 (11732686_x_at) / RFU ORM1 (11744905_x_at) / Fold change /veh ORM1 (11744905_x_at) / RFU CCDC152 (11743942_at) / Fold change /veh CCDC152 (11743942_at) / RFU ECM1 (11717891_a_at) / Fold change /veh ECM1 (11717891_a_at) / RFU IL23R (11748794_a_at) / Fold change /veh IL23R (11748794_a_at) / RFU TNFAIP8L3 (11732012_x_at) / Fold change /veh TNFAIP8L3 (11732012_x_at) / RFU MBOAT4 (11741988_at) / Fold change /veh MBOAT4 (11741988_at) / RFU 11764193_at / Fold change /veh 11764193_at / RFU TMEM53 (11763286_at) / Fold change /veh TMEM53 (11763286_at) / RFU MAGEB2 (11727129_at) / Fold change /veh MAGEB2 (11727129_at) / RFU TMEM200A (11744735_a_at) / Fold change /veh TMEM200A (11744735_a_at) / RFU CCDC152 (11751479_a_at) / Fold change /veh CCDC152 (11751479_a_at) / RFU FAM211A (11726209_a_at) / Fold change /veh FAM211A (11726209_a_at) / RFU RGS16 (11746705_a_at) / Fold change /veh RGS16 (11746705_a_at) / RFU VCAN (11755009_s_at) / Fold change /veh VCAN (11755009_s_at) / RFU RHOB (11743442_s_at) / Fold change /veh RHOB (11743442_s_at) / RFU RGS16 (11720943_a_at) / Fold change /veh RGS16 (11720943_a_at) / RFU RGS16 (11720944_at) / Fold change /veh RGS16 (11720944_at) / RFU, VPS4B / Fold change vs veh, VPS4B / RFU, CREB1 / Fold change vs veh, CREB1 / RFU, DNAJC13 / Fold change vs veh, DNAJC13 / RFU, GNAQ / Fold change vs veh, GNAQ / RFU, CDK5R1 / Fold change vs veh, CDK5R1 / RFU, ZRANB3 / Fold change vs veh, ZRANB3 / RFU, CUL4A / Fold change vs veh, CUL4A / RFU, CCNY / Fold change vs veh, CCNY / RFU, UFL1 / Fold change vs veh, UFL1 / RFU, COG3 / Fold change vs veh, COG3 / RFU, DIAPH2 / Fold change vs veh, DIAPH2 / RFU, SKA2 / Fold change vs veh, SKA2 / RFU, AFF3 / Fold change vs veh, AFF3 / RFU, LMF1 / Fold change vs veh, LMF1 / RFU, IPO11 / Fold change vs veh, IPO11 / RFU, DFFB / Fold change vs veh, DFFB / RFU, FOXP1 / Fold change vs veh, FOXP1 / RFU, CARD8 / Fold change vs veh, CARD8 / RFU, STRN3 / Fold change vs veh, STRN3 / RFU, ADK / Fold change vs veh, ADK / RFU, RASSF2 / Fold change vs veh, RASSF2 / RFU, WIPF1 / Fold change vs veh, WIPF1 / RFU, LARP1B / Fold change vs veh, LARP1B / RFU, RASA1 / Fold change vs veh, RASA1 / RFU, RB1 / Fold change vs veh, RB1 / RFU, PPFIA1 / Fold change vs veh, PPFIA1 / RFU, MAT2A / Fold change vs veh, MAT2A / RFU, CCT5 / Fold change vs veh, CCT5 / RFU, WDR92 / Fold change vs veh, WDR92 / RFU, CUX1 / Fold change vs veh, CUX1 / RFU, TTC7A / Fold change vs veh, TTC7A / RFU, TMEM135 / Fold change vs veh, TMEM135 / RFU, DEPTOR / Fold change vs veh, DEPTOR / RFU, CPM / Fold change vs veh, CPM / RFU, DNAJB6 / Fold change vs veh, DNAJB6 / RFU, CACNA2D3 / Fold change vs veh, CACNA2D3 / RFU, DTX4 / Fold change vs veh, DTX4 / RFU, TFCP2 / Fold change vs veh, TFCP2 / RFU, GMCL1 /// GMCL1P1 / Fold change vs veh, GMCL1 /// GMCL1P1 / RFU, AEBP2 / Fold change vs veh, AEBP2 / RFU, SNHG1 /// SNORD22 /// SNORD25 /// SNORD26 /// SNORD27 /// SNORD28 /// SNORD29 /// SNORD31 / Fold change vs veh, SNHG1 /// SNORD22 /// SNORD25 /// SNORD26 /// SNORD27 /// SNORD28 /// SNORD29 /// SNORD31 / Fold change (Aza/veh), C12orf56 (ProbeSet 11735607_a_at) / Fold change (ACY-1035/veh), C12orf56 (ProbeSet 11735607_a_at) / Fold change (Aza/veh), FGFR1OP (ProbeSet 11751329_s_at) / Fold change (ACY-1035/veh), FGFR1OP (ProbeSet 11751329_s_at) / Fold change (Aza/veh), VPS36 (ProbeSet 11739960_a_at) / Fold change (ACY-1035/veh), VPS36 (ProbeSet 11739960_a_at) / RFU SYPL1 (11715823_x_at) / Fold change /veh SYPL1 (11715823_x_at) / RFU IGFBP7 (11715501_s_at) / Fold change /veh IGFBP7 (11715501_s_at) / RFU REEP3 (11722064_at) / Fold change /veh REEP3 (11722064_at) / RFU IGLL1 (11728026_x_at) / Fold change /veh IGLL1 (11728026_x_at): dose or concentration left out as unconfirmed. Particulars: ProbeSet 11727958_a_at; LIST B.

Turning to `Nc1ccc(-c2cccs2)cc1NC(=O)c1ccc2c(c1)cc(C1CC1)n2CCN1CCOCC1` [ACY-1035], the “RFU, ING1” value was 74.08 RFU.

The values above are taken from paper PMC5218480 (PLoS ONE, 2017).
